Experimental data taken from PubChem BioAssay AID256 (DTP/NCI, 2004).
Values joined by “and” are separate entries in the source; they are usually repeats but may differ in a detail not shown here. Identical values can stand only once. Inconclusive results and toxic doses are left out. Rule for the calls: active = survival T/C of 150% or more; inactive = T/C below 125% in these data.

Tested on: CD2F1 mice, L1210 leukemia ip, survival T/C
Test: NCI In Vivo Anticancer Drug Screen. Data for tumor model L1210 Leukemia (intraperitoneal) in CD2F1 (CDF1) mice
Details: endpoint: mean survival time, higher = longer survival
In short: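 In this screen, transplantable tumors were grown in mice given either the compound or its vehicle. Results were expressed as the treated measurement relative to the control measurement.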

[1] = dose: 75.0 mg/kg/injection, schedule: Q01DX001 (ip), vehicle: saline
[2] = dose: 100.0 mg/kg/injection, schedule: Q01DX009 (ip), vehicle: saline with Tween-80
[3] = dose: 100.0 mg/kg/injection, schedule: Q04DX003 (ip), vehicle: saline with Tween-80
[4] = dose: 200.0 mg/kg/injection, schedule: Q01DX009 (ip), vehicle: saline with Tween-80
[5] = dose: 200.0 mg/kg/injection, schedule: Q04DX003 (ip), vehicle: saline with Tween-80
[6] = dose: 400.0 mg/kg/injection, schedule: Q04DX003 (ip), vehicle: saline with Tween-80

Measured: T/C

Nc1nc2c(c(=O)[nH]1)CN(c1ccc(Cl)cc1)C2
inactive: [1] 98 % of control | dose: 150.0 mg/kg/injection, schedule: Q01DX001 (ip), vehicle: saline 104 % of control | dose: 300.0 mg/kg/injection, schedule: Q01DX001 (ip), vehicle: saline 93 % of control

CCCCNC(=O)Nc1ccccc1Cl
inactive: [2] 91 % of control | [3] 101 % of control | [4] 94 % of control | [5] 100 % of control | dose: 400.0 mg/kg/injection, schedule: Q01DX009 (ip), vehicle: saline with Tween-80 100 % of control | [6] 92 % of control

Cc1oc2c(C)c3oc(=O)cc(C)c3cc2c1CCl
inactive: dose: 12.5 mg/kg/injection, schedule: Q01DX009 (ip), vehicle: saline with Tween-80 101 % of control and 105 % of control | dose: 25.0 mg/kg/injection, schedule: Q01DX009 (ip), vehicle: saline with Tween-80 96 % of control and 105 % of control | dose: 50.0 mg/kg/injection, schedule: Q01DX009 (ip), vehicle: saline with Tween-80 96 % of control and 108 % of control | [2] 109 % of control | [4] 91 % of control

CC(=O)C(CN(C)C)c1ccccc1 (stereo unspecified)
inactive: dose: 100.0 mg/kg/injection, schedule: Q04DX003 (ip), vehicle: saline 95 % of control | dose: 200.0 mg/kg/injection, schedule: Q04DX003 (ip), vehicle: saline 107 % of control

C[C@]12CC[C@@H]3c4ccc(OC5CCCCO5)cc4CC[C@H]3[C@@H]1CC[C@@H]2O (stereo partly specified)
inactive: dose: 600.0 mg/kg/injection, schedule: Q01DX Z (ip), vehicle: steriod suspending solution 108 % of control | dose: 800.0 mg/kg/injection, schedule: Q01DX Z (ip), vehicle: steriod suspending solution 101 % of control

CC1=CCS(=O)(=O)C1
inactive: dose: 50.0 mg/kg/injection, schedule: Q01DX009 (ip), vehicle: saline 111 % of control | dose: 100.0 mg/kg/injection, schedule: Q01DX009 (ip), vehicle: saline 90 % of control

Nc1nc(=S)c2ncn(C3CC(O)C(CO)C3)c2[nH]1 (stereo unspecified)
inactive: dose: 50.0 mg/kg/injection, schedule: Q01DX009 (ip), vehicle: Klucel (hydroxypropylcellulose) (HPC) 94 % of control | dose: 100.0 mg/kg/injection, schedule: Q01DX009 (ip), vehicle: Klucel (hydroxypropylcellulose) (HPC) 91 % of control | dose: 200.0 mg/kg/injection, schedule: Q01DX009 (ip), vehicle: Klucel (hydroxypropylcellulose) (HPC) 108 % of control

Nc1cccc2scnc12
inactive: [2] 104 % of control | [4] 96 % of control

CCCC(=O)OC1C2OP(=O)(O)OCC2OC1n1c(=S)[nH]c2c(N)ncnc21 (stereo unspecified)
inactive: dose: 6.25 mg/kg/injection, schedule: Q01DX005 (ip), vehicle: water 93 % of control | dose: 12.5 mg/kg/injection, schedule: Q01DX005 (ip), vehicle: water 97 % of control | dose: 25.0 mg/kg/injection, schedule: Q01DX005 (ip), vehicle: water 101 % of control | dose: 50.0 mg/kg/injection, schedule: Q01DX005 (ip), vehicle: water 93 % of control | dose: 100.0 mg/kg/injection, schedule: Q01DX005 (ip), vehicle: water 101 % of control

CCCCCCCCCCCCCCCCCC(=O)NNCCO
inactive: [2] 89 % of control | [3] 94 % of control | [4] 89 % of control | [5] 93 % of control | [6] 91 % of control

Cc1ccc(S(=O)c2ccc(C)cc2)cc1
inactive: dose: 100.0 mg/kg/injection, schedule: Q01DX001 (ip), vehicle: Klucel (hydroxypropylcellulose) (HPC) 101 % of control | dose: 100.0 mg/kg/injection, schedule: Q01DX001 (ip), vehicle: saline with Tween-80 100 % of control | dose: 200.0 mg/kg/injection, schedule: Q01DX001 (ip), vehicle: Klucel (hydroxypropylcellulose) (HPC) 89 % of control | dose: 200.0 mg/kg/injection, schedule: Q01DX001 (ip), vehicle: saline with Tween-80 103 % of control | dose: 400.0 mg/kg/injection, schedule: Q01DX001 (ip), vehicle: Klucel (hydroxypropylcellulose) (HPC) 93 % of control | dose: 400.0 mg/kg/injection, schedule: Q01DX001 (ip), vehicle: saline with Tween-80 100 % of control

CN1C2C=C(c3ccccc3)C(Br)C1CC2 (stereo unspecified)
inactive: dose: 20.0 mg/kg/injection, schedule: Q01DX009 (ip), vehicle: saline 103 % of control | dose: 40.0 mg/kg/injection, schedule: Q01DX009 (ip), vehicle: saline 112 % of control | dose: 80.0 mg/kg/injection, schedule: Q01DX009 (ip), vehicle: saline 110 % of control

COc1cc2ccc3c[n+](C)ccc3c2cc1OC
inactive: dose: 25.0 mg/kg/injection, schedule: Q01DX009 (ip), vehicle: water 102 % of control and 100 % of control | dose: 50.0 mg/kg/injection, schedule: Q01DX009 (ip), vehicle: water 107 % of control and 104 % of control | dose: 100.0 mg/kg/injection, schedule: Q01DX009 (ip), vehicle: water 94 % of control and 114 % of control

CC12CCC3C(CCC4CC(O)CCC43C)C1CCC2=O (stereo unspecified)
inactive: [3] 103 % of control | [5] 92 % of control | [6] 97 % of control

Cc1cc(O)c2c(c1)C(=O)c1cccc(O)c1C2=O
inactive: dose: 6.25 mg/kg/injection, schedule: Q01DX001 (ip), vehicle: saline 115 % of control | dose: 12.5 mg/kg/injection, schedule: Q01DX001 (ip), vehicle: saline 112 % of control | dose: 25.0 mg/kg/injection, schedule: Q01DX001 (ip), vehicle: saline 102 % of control

c1ccc2c(c1)sc1[n+]2CCS1
inactive: [1] 113 % of control

O=NN1CCOC1=NCCCl
inactive: dose: 3.12 mg/kg/injection, schedule: Q01DX001 (ip), vehicle: water 100 % of control | dose: 6.25 mg/kg/injection, schedule: Q01DX001 (ip), vehicle: water 96 % of control | dose: 12.5 mg/kg/injection, schedule: Q01DX001 (ip), vehicle: water 94 % of control | dose: 25.0 mg/kg/injection, schedule: Q01DX001 (ip), vehicle: water 96 % of control | dose: 50.0 mg/kg/injection, schedule: Q01DX001 (ip), vehicle: water 96 % of control | dose: 100.0 mg/kg/injection, schedule: Q01DX001 (ip), vehicle: water 102 % of control | dose: 200.0 mg/kg/injection, schedule: Q01DX001 (ip), vehicle: water 122 % of control
